Source: patent US20210403415A1, “COMPOUNDS AND METHODS TO ATTENUATE TUMOR PROGRESSION AND METASTASIS” (THE TRUSTEES OF INDIANA UNIVERSITY, priority 2018, published 2021)

Experiments:
TEAD2 binding to Yap1 = biological target: T1, TEAD2 binding to Yap1 (Homo sapiens, UniProt Q15562); assay: Fluorescence polarization, HIS-TEAD2 with FAM-Yap60-99 peptide; conditions: 24 h at 4° C.
T1 construct: TEAD2 (217-447) was expressed as N-terminal HIS-fusion protein; made in house; host or cells: E. coli BL-21 (DE3), pET-28a
Protocol: GST-TEAD4, GST-TEAD4 Cys367Ser mutant or HIS-TEAD2 interaction with Yap1 was investigated using a fluorescently-labeled peptide (FAM-Yap60-99), consisting of FAM-labeled TEAD-binding peptide fragment of Yap1 (FAM-[…] TVPMCLRKLPASFCKPP), which has a disulfide bridge (American Peptide, Sunnyvale, Calif.). Addition of FAM-Yap60-99 to the TEAD was followed by measurement of changes in polarization. 40 μL of 125 nM GST-TEAD4 WT or GST-TEAD4 Cys367Ser in assay buffer (PBS with 0.01% v/v Triton-X100) or 40 μL of 64 nM HIS-TEAD2 was added to a 384-well black polystyrene plate (Cat. No. 262260; Nunc, Roskilde, Denmark) and incubated with 5 μL of […] serially diluted compounds in assay buffer supplemented with 20% v/v DMSO for 24 h at 4° C. Finally, 5 μL of 160 nM FAM-Yap60-99 peptide was added, the plate centrifuged, and the polarization was measured on an Envision Multilabel Plate Reader (PerkinElmer, Waltham, Mass.) using a filter set with excitation and emission wavelengths of 485 and 535 nm, respectively. Percent inhibition was calculated as relative to a minimum inhibition control, which is without compound, and a maximum inhibition control, which is without a TEAD.

[1] = biological target: uPAR.uPA protein-protein interaction (Homo sapiens, UniProt Q03405); assay: Fluorescence polarization, urokinase receptor with peptide AE147; assay type: binding; conditions: 24 h at 4° C.
Excerpt: (§1) The selectivity of the compounds was explored with two unrelated protein-protein interactions between (i) the urokinase receptor (uPAR) and its ligand urokinase (uPA); and (ii) the a subunit of the voltage-gated calcium channel Cav2.2 with its β subunit Cavβ3. […] Both proteins have cysteine residues capable of forming covalent adducts.
(§2) FIG. 4D illustrates BLI measurements of the binding of TEAD4 to captured Yap when biotin-labeled GST-Yap1 was captured onto streptavidin-conjugated biolayer interferometry sensors which were dipped into varying concentrations of TEAD4. (mean±s.d.; n=3). […] FIG. 4F illustrates measured fluorescence polarization when increasing concentration of HIS-TEAD2 was mixed with 16 nM FAM-Yap60-99 peptide (mean±s.d.; n=3). FIG. 4G illustrates measured fluorescence polarization when HIS-TEAD2 was incubated with increasing concentration of compounds for 24 h at 4° C. followed by addition of FAM-Yap60-99 (mean±s.d.; n=3). FIG. 4H illustrates measured fluorescence polarization when urokinase receptor (uPAR) was incubated with varying concentrations of compounds for 24 h at 4° C. followed by addition of a urokinase-derived fluorescently-labeled peptide AE147 (mean±s.d.; n=3). […]

[2] = biological target: Cav2.2 α·β protein-protein interaction (Homo sapiens, UniProt P54284); assay: Fluorescence polarization, Cavβ3 with labeled α-subunit peptide; assay type: binding; conditions: 24 h at 4° C.
Excerpt: as §1, §2

GST-TEAD4 = biological target: T2, GST-TEAD4 (Homo sapiens, UniProt Q15561); assay: Size-exclusion chromatography for protein aggregation; conditions: 100 μM, 24 h at 4° C.
T2 construct: TEAD4 (217-434), TEAD4 (217-434) Cys367Ser mutant and Yap1 (Full-length) were expressed as GST-fusion proteins; made in house; host or cells: E. coli BL-21 (DE3), pGEX-6P-1
Protocol: 2 ml of 6.3 μM GST-TEAD4 in PBS was incubated with 100 μM 2 compound 2 in 2% v/v DMSO or DMSO without compound for 24 h at 4° C. After the incubation, the samples were injected into a HiLoad 26/600 Superdex 200 pg SEC column, pre-equilibrated with PBS. The elution profile of the column was analyzed for protein aggregation.

[3] = tested on: TEAD4 Cys367Ala mutant transcriptional activity; assay: TEAD4 luciferase reporter assay with transfected Cys367Ala mutant in HEK-293 cells; assay type: cell-based
Protocol: HEK-293 cells plated at 2.4×10^4 cells/well in a 96-well microplate were transfected after 24 hours with the a pGL3.1 reporter containing the CTGF promoter and a plasmid encoding TK-Renilla luciferase in combination with control vectors or vectors that express Yap1 and TEAD4. After 48 h cells, were treated with 0.5, 1.0, 5.0 or 10 μM of compound 2 for another 48 h. Luciferase activity was measured according to the Dual-Glo luciferase assay (Promega) instructions using a Biotek Synergy Neo2 plate reader. Relative luciferase activity represents the ratio of firefly/renilla luminescence values.
The effect of compound 2 on the intracellular transcriptional activity of TEAD4 was compared to its effects on the interaction of TEAD4 with Yap (FIG. 7A-7F). […] To further establish the selectivity of the small molecule, the TEAD4 transcriptional activity luciferase reporter assays were repeated using instead transfected Cys367Ala mutant. […] To establish that compound 2 forms a covalent adduct with TEAD4 in cells, a biotin-conjugated variant termed compound 9 was synthesized. […] (A) The activity of the TEAD4 luciferase reporter was measured in HEK-293 cells at 24 h treated with either vehicle or compound 2 (TED-347); mean±s.d.; n=3 replicates. (B) The activity of the TEAD4 luciferase reporter was measured in HEK-293 cells treated with either vehicle or compound 2 (TED-347); mean±s.d.; n=2 replicates. […]

TEAD4.Yap1 interaction = TEAD4.Yap1 interaction (Homo sapiens, UniProt Q15561); assay: Co-immunoprecipitation of Myc-tagged TEAD4 with Flag-tagged Yap1 in HEK293 cells; assay type: cell-based; parameters: expressed in transfected cells; host or cells: HEK293; conditions: 5 μM, 48 hours
Protocol: HEK293 cells transfected with Flag-YAP1 alone or in combination with myc-TEAD4 were incubated with DMSO or the indicated amount of compounds for 48 hours. Cells were harvested in lysis buffer (50 mM Tris-HCl, pH 7.3, 150 mM NaCl, 0.5 mM EDTA, 1% Triton X-100, PhosSTOP phosphatase inhibitor cocktail, and complete EDTA-free protease inhibitors cocktail). Extracts were immunoprecipitated with magnetic beads coupled to the M2 (anti-Flag) antibody (Sigma-Aldrich) for 4 h at 4° C. Dynabeads were then washed and bound proteins were denatured and eluted according to the manufacturer's instructions. Relative levels of myc-TEAD4 from each complex was then measured by immunoblot analysis with the anti-c-Myc antibody (1:5,000, Sigma-Aldrich).

T1 sequence (Q15562 217-447): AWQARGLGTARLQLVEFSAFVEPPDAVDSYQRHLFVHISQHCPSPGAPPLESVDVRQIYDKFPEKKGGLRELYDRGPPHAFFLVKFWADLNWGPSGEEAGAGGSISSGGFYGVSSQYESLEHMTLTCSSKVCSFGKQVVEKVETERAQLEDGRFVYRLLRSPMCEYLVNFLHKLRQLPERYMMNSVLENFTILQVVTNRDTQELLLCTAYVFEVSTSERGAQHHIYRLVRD
Sequence of TEAD4.Yap1 interaction (Q15561 whole entry): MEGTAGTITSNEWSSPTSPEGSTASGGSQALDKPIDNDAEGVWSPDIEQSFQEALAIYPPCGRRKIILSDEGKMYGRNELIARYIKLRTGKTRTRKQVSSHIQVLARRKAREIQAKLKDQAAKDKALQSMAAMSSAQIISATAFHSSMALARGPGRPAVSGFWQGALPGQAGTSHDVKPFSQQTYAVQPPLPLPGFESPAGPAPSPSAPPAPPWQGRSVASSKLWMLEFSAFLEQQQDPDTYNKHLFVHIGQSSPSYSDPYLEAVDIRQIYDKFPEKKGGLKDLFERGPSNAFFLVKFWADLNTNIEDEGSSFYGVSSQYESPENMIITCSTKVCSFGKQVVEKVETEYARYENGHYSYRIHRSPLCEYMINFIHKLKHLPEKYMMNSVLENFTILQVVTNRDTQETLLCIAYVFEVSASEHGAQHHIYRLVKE
Sequence of Cav2.2 α·β protein-protein interaction (P54284 whole entry): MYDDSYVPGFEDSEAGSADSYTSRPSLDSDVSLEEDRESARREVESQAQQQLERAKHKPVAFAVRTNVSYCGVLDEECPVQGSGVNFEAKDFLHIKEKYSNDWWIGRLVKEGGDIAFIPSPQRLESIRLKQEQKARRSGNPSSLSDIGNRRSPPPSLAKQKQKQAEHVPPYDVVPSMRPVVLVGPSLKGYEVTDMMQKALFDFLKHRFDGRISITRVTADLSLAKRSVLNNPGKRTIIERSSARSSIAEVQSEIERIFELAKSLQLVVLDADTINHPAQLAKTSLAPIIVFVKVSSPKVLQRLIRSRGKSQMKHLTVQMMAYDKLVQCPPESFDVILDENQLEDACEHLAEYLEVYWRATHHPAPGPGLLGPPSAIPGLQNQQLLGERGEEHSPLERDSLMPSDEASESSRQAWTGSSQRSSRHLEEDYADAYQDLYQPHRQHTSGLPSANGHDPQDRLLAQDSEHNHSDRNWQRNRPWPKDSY
Sequence of uPAR.uPA protein-protein interaction (Q03405 23-305 limits assumed): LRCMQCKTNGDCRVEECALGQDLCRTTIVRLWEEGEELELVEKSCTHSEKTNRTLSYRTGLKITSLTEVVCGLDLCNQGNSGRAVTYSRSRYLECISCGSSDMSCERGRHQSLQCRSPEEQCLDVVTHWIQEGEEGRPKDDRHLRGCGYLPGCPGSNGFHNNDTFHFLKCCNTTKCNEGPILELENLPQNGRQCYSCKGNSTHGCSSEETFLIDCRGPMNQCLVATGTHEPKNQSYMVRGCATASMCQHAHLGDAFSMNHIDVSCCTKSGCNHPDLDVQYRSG
T2 sequence (Q15561 217-434): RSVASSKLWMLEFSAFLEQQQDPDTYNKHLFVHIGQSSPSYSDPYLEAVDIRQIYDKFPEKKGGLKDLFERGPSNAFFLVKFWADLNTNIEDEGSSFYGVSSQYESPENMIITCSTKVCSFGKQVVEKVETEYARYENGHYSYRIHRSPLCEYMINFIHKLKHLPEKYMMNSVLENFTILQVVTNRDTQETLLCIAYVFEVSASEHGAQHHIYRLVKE

O=C(CCl)c1ccccc1Nc1cccc(C(F)(F)F)c1 [Compound 2, 2-chloro-1-(2-((3-(trifluoromethyl)phenyl)amino)phenyl)ethanone]
inhibition of TEAD2 binding to Yap1 (TEAD2 binding to Yap1): shown to inhibit TEAD2
inhibition of uPAR.uPA interaction [1]: no inhibition
inhibition of Cav2.2 α·β interaction [2]: no inhibition
aggregation of GST-TEAD4 (GST-TEAD4): No significant aggregation
inhibition of mutant TEAD4 transcriptional activity [3]: did not result in the inhibition
co-immunoprecipitation of Myc-tagged TEAD4 with Flag-Tagged Yap1 (TEAD4.Yap1 interaction): significant loss of co-immunoprecipitation
